Like-named read-outs stand apart in the source and are kept apart here.

As usually defined, the ED50 is the dose at which the effect has come halfway, by size or by number of responders.

For one data set, the system named is peptic ulcer disease. The settings on record: clinical evaluation; cited from earlier work.
Data set [1] deals with T1, histamine H2-receptor (isolated guinea pig right atria) (Cavia porcellus, UniProt P47747).
T1 construct: The spontaneously beating right atrium was dissected free from other tissues; from tissue; host or cells: spontaneously beating right atrium of male Hartley strain guinea pigs
T1 sequence (P47747 whole entry): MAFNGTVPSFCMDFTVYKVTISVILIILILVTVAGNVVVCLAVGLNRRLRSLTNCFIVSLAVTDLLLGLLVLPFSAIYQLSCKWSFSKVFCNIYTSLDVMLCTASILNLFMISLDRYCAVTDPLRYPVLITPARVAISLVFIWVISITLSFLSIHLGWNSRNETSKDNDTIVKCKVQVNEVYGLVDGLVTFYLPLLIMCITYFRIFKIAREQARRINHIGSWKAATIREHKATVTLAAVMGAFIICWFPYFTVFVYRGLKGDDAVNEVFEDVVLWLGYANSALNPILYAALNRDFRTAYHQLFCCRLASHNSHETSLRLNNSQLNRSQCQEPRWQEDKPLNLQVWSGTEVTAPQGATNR
The data set can be described thus: Histamine H2-receptor antagonism, isolated guinea pig right atria assay. The settings on record: for Histamine ED50 with 95% confidence limits, after test compound: ED50 of histamine in presence of test compound 3 × 10^-5 M, 30 minute incubation, N = 8 (cimetidine), 2 (BL-6040, BL-6044); for Concentration-Response Curve Displacement Factor: test compound 3 × 10^-5 M; for potency as histamine H2-receptor antagonist compared with cimetidine: isolated guinea pig atria (in vitro). As to the method:
The present comparative studies were carried out using a modification of the procedure reported by Reinhardt et al., Agents and Actions, 4, 217 (1974).
Male Hartley strain guinea pigs (350-450 gm.) were sacrificed by a blow on the head. The heart was excised and placed in a Petri dish of oxygenated (95% O2, 5% CO2) modified Krebs solution (g./liter: NaCl 6.6, KCl 0.35, MgSO4.7 H2 O 0.295, KH2 PO4 0.162, CaCl2 0.238, NaHCO3 2.1 and dextrose 2.09). The spontaneously beating right atrium was dissected free from other tissues and a silk thread (4-0) attached to each end. The atrium was suspended in a 20 ml. muscle chamber containing oxygenated modified Krebs solution maintained at 32° C. Atrial contractions were recorded isometrically by means of a Grass FT 0.03 force displacement transducer and recordings of contractile force and rate were made with Beckman RP Dynograph.
A resting tension of 1 g. was applied to the atrium and it was allowed to equilibrate for 1 hour.
Concentration-response curve displacement factors were calculated as follows: [formula] The factors obtained for BL-6040 and BL-6044 were then expressed as ratios of the factor obtained for cimetidine. [formula]

The test system of the next data set is histamine H2-receptor. The settings on record: cited from earlier work.
For data set [2] the following is noted: cited from earlier work.
The test system of another data set is gastric acid output. The data set is described as follows: Gastric antisecretory activity in the two hour pylorus ligated (Shay) rat. Particulars: for ED50: Rattus norvegicus, 2 h; for ED50 / Percent Inhibition Acid Output / Potency Ratio: ip; for potency as inhibitor of gastric acid secretion compared with cimetidine: rats (in vivo); for Potency Ratio: relative to cimetidine (1.0). It is filed as in vivo, rat (male Long Evans). The text has this: Determination of Gastric Antisecretory Activity in the Two Hour Pylorus Ligated (Shay) Rat
The pyloric ligation procedure in the rat was designed by Shay et al., Gastroenterology, 5, 53 (1945) for the study of perforating gastric ulcers; however, as the method became known, it was also employed as a means of studing rat gastric secretion, Shay et al., Gastroenterology, 26, 906 (1954), Brodie, D. A., Am. J. Dig. Dis., 11, 231 (1966). A modification of this procedure is presently used to evaluate compounds for gastric antisecretory activity.
Male Long Evans rats, 280-300 gm., are used. The animals are placed in individual cages and fasted for 24 hours with free access to water. Under ether anesthesia, the stomach is reached through a midline incision, and a cotton-thread ligature is placed around the pylorus. After wound closure, ether administration is stopped and either cimetidine, BL-6040, BL-6044 or vehicle is administered intraperitoneally in a volume of […]. All compounds are solubilized with one equivalent of HCl and brought to the proper volume with water. The animals are returned to their cages from which the water bottles have been removed and two hours later are sacrificed with ether. The stomach is removed and the two hour gastric collection is drained into a graduated test tube for volume determination. Titratable acidity is measured by titrating a one ml. sample to pH 7.0 with 0.02 NaOH, using an Autoburet and electrometric pH meter (Radiometer). Titratable acid output is calculated in microequivalents by mutiplying the volume in milliliters by the acid concentration in milliequivalents per liter. The percent inhibition of acid output is calculated as follows [formula]

For data set [3] the following is noted: in vivo; cited from earlier work.
A further data set has as its system gastric secretion. The settings on record: animals and man; cited from earlier work.
Where [4] appears, read: inhibition of gastric acid output, two hours, read-out: ED50.
Where [5] appears, read: inhibition of gastric acid output.

Turning to `CN/C(=N/CCSCc1nc[nH]c1C)NC#N` [Cimetidine, reference compound], in the data set with peptic ulcer disease, the “efficacy in the treatment of peptic ulcer disease” value is on record as “effective therapeutic agent in the treatment of peptic ulcer disease”. Besides, the “Histamine ED50 with 95% confidence limits, after test compound” value in data set [1] came out at 4.80 µg/mL. For the same compound, in data set [1], the “Concentration-Response Curve Displacement Factor” value is 25.26. Besides, the H2-receptor antagonism result in the data set on histamine H2-receptor is given as “as effective an H2 antagonist as metiamide”. Further, the half-life result in data set [2] (in vivo) is “relatively short”. The 50% effective dose (ED50) with gastric acid output stood at 12.1 µmol/kg. Besides, the “Percent Inhibition Acid Output” value with gastric acid output (5 μMole/kg, two hours) was determined as 26%; with gastric acid output (10 μMole/kg, two hours), 45%; in the data set on gastric acid output (20 μMole/kg, two hours) it was 76%. In addition, in data set [3], the “toxicity (agranulocytosis)” value is recorded as “without producing agranulocytosis”.

On to `CNC(=S)NCCCCc1cnc[nH]1` [Burimamide], for which the “inhibition of gastric secretion” value in the data set on gastric secretion was “inhibits gastric secretion in animals and man”. In addition, in the data set on histamine H2-receptor, the H2-receptor antagonism entry is “a competitive antagonist of these receptors”. In addition, the oral absorption result in data set [2] (in vivo, po) is “poor”.

Consider `C#CCNC(=C[N+](=O)[O-])NCCSCc1nccs1` [BL-6040, 1-Nitro-2-(2-propynylamino)-2-{2-[(thiazol-2-yl)methylthio]ethylamino}ethylene], for which, in data set [1], the “Histamine ED50 with 95% confidence limits, after test compound” value was 20.79 µg/mL; the “potency as histamine H2-receptor antagonist compared with cimetidine” value is “more potent than cimetidine”; the “Concentration-Response Curve Displacement Factor” value turned out to be 46.20. Besides, the ED50 in the data set on gastric acid output (setting [4]) was determined as 4.11 µmol/kg. In addition, the “Percent Inhibition Acid Output” value with gastric acid output (5 μMole/kg, two hours) is 53%. The “Percent Inhibition Acid Output” value with gastric acid output (10 μMole/kg, two hours) is 69%. The “Percent Inhibition Acid Output” value in the data set with gastric acid output (20 μMole/kg, two hours) is recorded as 80%. The “potency as inhibitor of gastric acid secretion compared with cimetidine” value with gastric acid output is given as “more potent than cimetidine”. For the same compound, in the data set with gastric acid output (setting [5]), the “Potency Ratio” value was 2.93.

Regarding `C#CCNC(=NCCSCc1nccs1)NC#N` [BL-6044, N-Cyano-N'-(2-propyn-1-yl)-N"-{2-[(thiazol-2-yl)methylthio]ethyl}guanidine], the “Histamine ED50 with 95% confidence limits, after test compound” value in data set [1] is 14.25 µg/mL. For the same compound, the “potency as histamine H2-receptor antagonist compared with cimetidine” value in data set [1] is given as “more potent than cimetidine”. Moreover, the “Concentration-Response Curve Displacement Factor” value in data set [1] is recorded as 43.18. Further, the median effective dose (ED50) with gastric acid output (setting [4]) came out at 5.73 µmol/kg. The “Percent Inhibition Acid Output” value with gastric acid output (5 μMole/kg, two hours) is given as 52%; in the data set on gastric acid output (10 μMole/kg, two hours) it was 58%; in the data set on gastric acid output (20 μMole/kg, two hours) it was 73%. For the same compound, the “potency as inhibitor of gastric acid secretion compared with cimetidine” value in the data set with gastric acid output is listed as “more potent than cimetidine”. Moreover, the “Potency Ratio” value in the data set with gastric acid output (setting [5]) is given as 2.11.

In the case of `C/N=C(\S)NCCSCc1[nH]cnc1C` [Metiamide], in the data set with histamine H2-receptor, the H2-receptor antagonism result is “more potent than burimamide”. The oral activity result in data set [2] (man) is “orally active in man”. In addition, the “toxicity (agranulocytosis)” value in data set [3] is given as “toxicity (agranulocytosis)”.
